Tested on: 429239-143-T-J1-PDC complex spheroid viability
Assay: Anticancer human tumor 429239-143-T-J1-PDC patient-derived small cell lung carcinoma cell line growth inhibition [POLQ]
Conditions: for IC50: curve of first compound; for viability, T/C: stronger effect = lower value
Summary of the method: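 Three-cell-type spheroids modelling solid tumor plus stroma served as the readout system; POL inhibitors were tested individually and in combination, concentration ranges set by clinical Cmax where known.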

[1] = second compound 0.0316 µM, first compound 0.00316 µM
[2] = second compound 0.0316 µM, first compound 0.01 µM
[3] = second compound 0.0316 µM, first compound 0.0316 µM
[4] = second compound 0.0316 µM, first compound 0.1 µM
[5] = second compound 0.0316 µM, first compound 0.316 µM
[6] = second compound 0.0316 µM, first compound 1 µM
[7] = second compound 0.1 µM, first compound 0.00316 µM
[8] = second compound 0.1 µM, first compound 0.01 µM
[9] = second compound 0.1 µM, first compound 0.0316 µM
[10] = second compound 0.1 µM, first compound 0.1 µM
[11] = second compound 0.1 µM, first compound 0.316 µM
[12] = second compound 0.1 µM, first compound 1 µM
[13] = second compound 0.316 µM, first compound 0.00316 µM
[14] = second compound 0.316 µM, first compound 0.01 µM
[15] = second compound 0.316 µM, first compound 0.0316 µM
[16] = second compound 0.316 µM, first compound 0.1 µM
[17] = second compound 0.316 µM, first compound 0.316 µM
[18] = second compound 0.316 µM, first compound 1 µM
[19] = second compound 1 µM, first compound 0.00316 µM
[20] = second compound 1 µM, first compound 0.01 µM
[21] = second compound 1 µM, first compound 0.0316 µM
[22] = second compound 1 µM, first compound 0.1 µM
[23] = second compound 1 µM, first compound 0.316 µM
[24] = second compound 1 µM, first compound 1 µM
[25] = second compound 3.16 µM, first compound 0.00316 µM
[26] = second compound 3.16 µM, first compound 0.01 µM
[27] = second compound 3.16 µM, first compound 0.0316 µM
[28] = second compound 3.16 µM, first compound 0.1 µM
[29] = second compound 3.16 µM, first compound 0.316 µM
[30] = second compound 3.16 µM, first compound 1 µM
[31] = second compound 10 µM, first compound 0.00316 µM
[32] = second compound 10 µM, first compound 0.01 µM
[33] = second compound 10 µM, first compound 0.0316 µM
[34] = second compound 10 µM, first compound 0.1 µM
[35] = second compound 10 µM, first compound 0.316 µM
[36] = second compound 10 µM, first compound 1 µM
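Also: luminescence signal used as surrogate measure of viable cells; spheroids exposed to compounds for seven days before readout.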
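For viability, T/C in this document: 100% = DMSO vehicle control viability as luminescence relative to vehicle.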

`COc1cccc(OCCCN)c1-c1cc(Nc2cnc(C#N)cn2)n[nH]1` + Nc1ccc(C#CCN(C(=O)Cc2ncc(C(F)(F)F)cc2C(F)(F)F)c2ccc(F)cc2)nn1 was tested, and the IC50 (second compound 0.0316 µM) was 398 nM, the IC50 (second compound 0.1 µM) was 305 nM and the IC50 (second compound 0.316 µM) was 219 nM. For the same compound, the IC50 (second compound 1 µM) was 224 nM, the IC50 (second compound 3.16 µM) was 234 nM and the IC50 (second compound 10 µM) was 160 nM. The viability, T/C [1] was 91.8%, the viability, T/C [2] was 94.8% and the viability, T/C [3] was 87.6%. It also gave a viability, T/C [4] of 72.7%, a viability, T/C [5] of 55.2% and a viability, T/C [6] of 33.3%. For the same compound, the viability, T/C [7] was 95.1%, the viability, T/C [8] was 97.2% and the viability, T/C [9] was 83.1%. The viability, T/C [10] was 71.3%, the viability, T/C [11] was 49.4% and the viability, T/C [12] was 28.7%. For the same compound, the viability, T/C [13] was 103%, the viability, T/C [14] was 98.9% and the viability, T/C [15] was 98.7%. For the same compound, the viability, T/C [16] was 65.3%, the viability, T/C [17] was 45.4% and the viability, T/C [18] was 33.6%. It also gave a viability, T/C [19] of 102%, a viability, T/C [20] of 90.2% and a viability, T/C [21] of 83.8%. It also gave a viability, T/C [22] of 68.8%, a viability, T/C [23] of 40.3% and a viability, T/C [24] of 27.1%. The viability, T/C [25] was 105%, the viability, T/C [26] was 89.1% and the viability, T/C [27] was 90.6%. For the same compound, the viability, T/C [28] was 74.5%, the viability, T/C [29] was 40.3% and the viability, T/C [30] was 24.5%. It also gave a viability, T/C [31] of 102%, a viability, T/C [32] of 86.5% and a viability, T/C [33] of 75.7%. For the same compound, the viability, T/C [34] was 60%, the viability, T/C [35] was 36.2% and the viability, T/C [36] was 26.1%.
With `Cn1ncnc1[C@H]1c2n[nH]c(=O)c3cc(F)cc(c23)N[C@@H]1c1ccc(F)cc1` + Cc1cccc(N(C)C(=O)C2C(O)CCN2c2nc(C)cc(C(F)(F)F)c2C#N)c1 the IC50 (second compound 0.0316 µM) was 19.8 nM, the IC50 (second compound 0.1 µM) was 19 nM and the IC50 (second compound 0.316 µM) was 24.6 nM. The IC50 (second compound 1 µM) was 19.3 nM, the IC50 (second compound 3.16 µM) was 27 nM and the IC50 (second compound 10 µM) was 11.5 nM. For the same compound, the viability, T/C (second compound 0.0316 µM, first compound 0.000316 µM) was 107%, the viability, T/C (second compound 0.0316 µM, first compound 0.001 µM) was 107% and the viability, T/C [1] was 88.4%. The viability, T/C [2] was 62.4%, the viability, T/C [3] was 42.7% and the viability, T/C [4] was 29.6%. The viability, T/C (second compound 0.1 µM, first compound 0.000316 µM) was 87.6%, the viability, T/C (second compound 0.1 µM, first compound 0.001 µM) was 98.4% and the viability, T/C [7] was 78.1%. It also gave a viability, T/C [8] of 65.9%, a viability, T/C [9] of 34.7% and a viability, T/C [10] of 39.8%. The viability, T/C (second compound 0.316 µM, first compound 0.000316 µM) was 93.5%, the viability, T/C (second compound 0.316 µM, first compound 0.001 µM) was 86.2% and the viability, T/C [13] was 73.3%. It also gave a viability, T/C [14] of 65.7%, a viability, T/C [15] of 44.7% and a viability, T/C [16] of 29.2%. The viability, T/C (second compound 1 µM, first compound 0.000316 µM) was 97.1%, the viability, T/C (second compound 1 µM, first compound 0.001 µM) was 98.7% and the viability, T/C [19] was 74.6%. For the same compound, the viability, T/C [20] was 57.8%, the viability, T/C [21] was 47.1% and the viability, T/C [22] was 31.8%. For the same compound, the viability, T/C (second compound 3.16 µM, first compound 0.000316 µM) was 95.8%, the viability, T/C (second compound 3.16 µM, first compound 0.001 µM) was 83% and the viability, T/C [25] was 84.4%. The viability, T/C [26] was 60.5%, the viability, T/C [27] was 49.1% and the viability, T/C [28] was 30.2%. For the same compound, the viability, T/C (second compound 10 µM, first compound 0.000316 µM) was 91.8%, the viability, T/C (second compound 10 µM, first compound 0.001 µM) was 86.1% and the viability, T/C [31] was 98.5%. The viability, T/C [32] was 51.8%, the viability, T/C [33] was 41.2% and the viability, T/C [34] was 32%.
With `CC1COCCN1c1cc(C2(S(C)(=N)=O)CC2)nc(-c2ccnc3[nH]ccc23)n1` (stereo unspecified) + COC1C(OC(N)=O)C(O)C(Oc2ccc3c(O)c(NC(=O)c4ccc(O)c(CC=C(C)C)c4)c(=O)oc3c2C)OC1(C)C the IC50 (second compound 0.0316 µM) was 2270 nM, the IC50 (second compound 0.1 µM) was 2120 nM and the IC50 (second compound 0.316 µM) was 1990 nM. It also gave an IC50 (second compound 1 µM) of 2430 nM, an IC50 (second compound 3.16 µM) of 1880 nM and an IC50 (second compound 10 µM) of 2580 nM. The viability, T/C [3] was 116%, the viability, T/C [4] was 100% and the viability, T/C [5] was 89.4%. The viability, T/C [6] was 79.4%, the viability, T/C (second compound 0.0316 µM, first compound 3.16 µM) was 35.6% and the viability, T/C (second compound 0.0316 µM, first compound 10 µM) was 15.6%. The viability, T/C [9] was 107%, the viability, T/C [10] was 105% and the viability, T/C [11] was 96.2%. The viability, T/C [12] was 73.5%, the viability, T/C (second compound 0.1 µM, first compound 3.16 µM) was 37.6% and the viability, T/C (second compound 0.1 µM, first compound 10 µM) was 15.1%. The viability, T/C [15] was 103%, the viability, T/C [16] was 94.3% and the viability, T/C [17] was 100%. For the same compound, the viability, T/C [18] was 61.1%, the viability, T/C (second compound 0.316 µM, first compound 3.16 µM) was 42.4% and the viability, T/C (second compound 0.316 µM, first compound 10 µM) was 17.3%. The viability, T/C [21] was 120%, the viability, T/C [22] was 94.1% and the viability, T/C [23] was 95.3%. The viability, T/C [24] was 88.1%, the viability, T/C (second compound 1 µM, first compound 3.16 µM) was 38.1% and the viability, T/C (second compound 1 µM, first compound 10 µM) was 21.4%. The viability, T/C [27] was 90.6%, the viability, T/C [28] was 109% and the viability, T/C [29] was 100%. The viability, T/C [30] was 72.6%, the viability, T/C (second compound 3.16 µM, first compound 3.16 µM) was 31.7% and the viability, T/C (second compound 3.16 µM, first compound 10 µM) was 18.8%. It also gave a viability, T/C [33] of 89.8%, a viability, T/C [34] of 103% and a viability, T/C [35] of 106%. It also gave a viability, T/C [36] of 72.1%, a viability, T/C (second compound 10 µM, first compound 3.16 µM) of 47% and a viability, T/C (second compound 10 µM, first compound 10 µM) of 16.6%.
